Assays:
Type in all cases: in vivo
[1] = target: T1, TREM-1 (Mus musculus, UniProt Q9JKE2); assay: Mouse myocardial infarction, myocardial inflammatory reaction and protease activity in infarcted tissue; settings: myocardium after coronary artery ligation
T1 construct: endogenous in cells; host or cells: living mice (C57BL, Balb/c, ApoE-/-), in vivo
T1 sequence (Q9JKE2 21-230): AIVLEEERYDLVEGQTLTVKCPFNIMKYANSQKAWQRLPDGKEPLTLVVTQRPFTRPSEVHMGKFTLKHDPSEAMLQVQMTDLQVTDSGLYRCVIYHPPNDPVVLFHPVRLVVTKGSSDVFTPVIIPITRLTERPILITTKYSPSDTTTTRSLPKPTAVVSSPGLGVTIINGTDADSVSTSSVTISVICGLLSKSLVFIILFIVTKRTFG
Description: For these experiments, myocardial lysate was obtained 24 hours after the induction of myocardial infarction from mice treated with TREM-1- and TLT-1-derived peptides or control LR12-scrambled peptide (‘controls’). Two areas were studied: a healthy area harvested distally from the infarcted zone in a control animal and an infarcted area. Data are representative of at least 5 different experiments. Results are mean±SD. p values are *p<0.001 [LR12 versus controls].
For these experiments, myocardial lysate was obtained 6, 24 and/or 96 hours after the induction of myocardial infarction from mice treated with TREM-1- and TLT-1-derived peptides or control LR12-scrambled peptide (‘controls’). Infarcted areas were analyzed for cytokine/chemokine production. Data are representative of at least 5 different experiments. p values are *p<0.001 [LR12 versus controls].
For these experiments, myocardial lysate was obtained 6, 24 and 96 hours after the induction of myocardial infarction from mice treated with TREM-1- and TLT-1-derived peptides or control LR12-scrambled peptide (‘controls’). Infarcted areas were analyzed. […]
Mice were monitored after surgery for mortality. Mice were randomized to receive or not peptides (daily ip injection for 5 days, 5 mg/kg) and monitored for survival. […]
MMP-9 enzymatic activity in tissue extracts was determined by SDS-PAGE gelatin zymography. […]

[2] = system: TREM-1; assay: Rat model of sepsis-induced cardiac dysfunction, intrinsic cardiac function by Millar catheter; design: dpdtmax/Ved / PRSW: unit not given beside the values; FEVG / ESPVR: unit not given here
Excerpt: TREM-1- and TLT-1-derived peptides administration during rat model of sepsis-induced cardiac dysfunction is associated with an increase of intrinsic cardiac function measured by Millar catheter (FEVG, ESPVR, dpdtmax/Ved, PRSW).
Rats were anaesthetized with isoflurane and a 2 F high-fidelity micro-manometer catheter (SPR-407, Millar Institute, Houston, Tex., USA) was inserted into the LV via the right carotid artery. The Millar catheter was connected to a Harvard Data Acquisition System interfaced with a PC with the AcqKnowledge III software (ACQ 3.2).

[3] = target: T1, TREM-1; assay: Atherosclerosis in ApoE-/- mouse on fat diet; settings: apoE-/- mice, daily i.p. 100 μg/day, 4 weeks; vehicle 146736
Description: 12-week old male ApoE−/− mice were put on a fat diet (lipids 15%, cholesterol 1.25%, no cholate) and were treated by daily intraperitoneal injection of peptides (100 μg/day) or PBS. After 4 weeks of fat diet, mice were sacrificed for analysis.
Atherosclerotic plaques were stained using Red Oil and quantified in the aortic sinus. Using immunofluorescent staining and immunohistochemistry, we analyzed plaque composition. Finally, we explored the effects of peptide's treatment on monocyte recruitment in the atherosclerotic plaques using the pulse staining technique developed by Potteaux et al. Briefly, monocytes were labelled in vivo by retro-orbital i.v. injection of 1 μm Fluoresbrite green fluorescent plain microspheres diluted 1:4 in sterile PBS [Potteaux et al, 2011]. Fluorescent beads count in the lesions reflects monocyte recruitment.

LQEEDAGEYGCM (listed as Homo sapiens) [TLT1-LR12]
myocardial infarction-induced gene activation (innate immunity / endothelial function genes) [1]: opposed to myocardial infarction-induced gene activation | ESPVR [2]: 2.7 ± 0.1 | FEVG [2]: 77.2 ± 9.2 | PRSW [2]: 143 ± 7 | dpdtmax/Ved [2]: 158 ± 18 | atherosclerotic lesion size in the aortic sinus (Red Oil staining) [3]: 103318 μm^2

From patent publication US9657081B2, “Inhibiting peptides derived from triggering receptor expressed on myeloid cells-1 (TREM-1) TREM-like transcript 1 (TLT-1) for treatment of cardiovascular diseases” (INSERM (Institut National de la Sante et de la Recherche …, priority 2013, dated 2017)
